In BigSolDB 2.1:

O=C1C2C3C=CC(C3)C2C(=O)N1O (stereo not drawn)
solubility (mole fraction)
Conditions | 278.15 K | 283.15 K | 288.15 K | 293.15 K | 298.15 K | 303.15 K | 308.15 K | 313.15 K | 318.15 K | 323.15 K
in 1,4-dioxane | – | – | 0.0796 | 0.0879 | 0.0963 | 0.107 | 0.115 | 0.128 | 0.138 | 0.153
in 2-butoxyethanol | 0.035 | 0.0408 | 0.0458 | 0.0536 | 0.0601 | 0.068 | 0.077 | 0.087 | 0.0989 | 0.11
in 2-ethoxyethanol | 0.0699 | 0.0774 | 0.0856 | 0.093 | 0.101 | 0.112 | 0.121 | 0.132 | 0.144 | 0.158
in 2-methoxyethanol | 0.106 | 0.115 | 0.122 | 0.131 | 0.141 | 0.154 | 0.164 | 0.179 | 0.188 | 0.205
in 2-propoxyethanol | 0.0446 | 0.0502 | 0.0566 | 0.0645 | 0.0718 | 0.0804 | 0.0896 | 0.0998 | 0.112 | 0.123
in acetone | 0.0266 | 0.0317 | 0.0374 | 0.0447 | 0.052 | 0.0606 | 0.0706 | 0.0817 | 0.0938 | 0.108
in acetonitrile | 0.0165 | 0.0201 | 0.0223 | 0.0258 | 0.0298 | 0.034 | 0.0387 | 0.0443 | 0.0505 | 0.0587
in ethanol | 0.0303 | 0.0352 | 0.042 | 0.051 | 0.0592 | 0.0703 | 0.082 | 0.0969 | 0.112 | 0.131
in ethyl acetate | 0.00721 | 0.00912 | 0.0112 | 0.0134 | 0.0156 | 0.0192 | 0.0229 | 0.0271 | 0.0323 | 0.0373
in isopropanol | 0.0197 | 0.0238 | 0.0287 | 0.0338 | 0.0403 | 0.0495 | 0.0577 | 0.0672 | 0.0774 | 0.089
in methanol | 0.0706 | 0.0796 | 0.0896 | 0.102 | 0.111 | 0.128 | 0.138 | 0.151 | 0.167 | 0.181
in n-propanol | 0.0192 | 0.0231 | 0.0274 | 0.034 | 0.0401 | 0.0488 | 0.0572 | 0.0651 | 0.0744 | 0.0885
